Measurements published in patent publication US8569384B2, “Antimicrobial compositions” (3M Innovative Properties Company, priority 2006, dated 2013).
Structures can show the parent of a compound that is named as a salt.

Tested on: E. faecalis; ATCC #10741
Test: Direct Inoculation Filter Assay (residual efficacy on filter paper)
Assay type: cell-based, Enterococcus faecalis
Details: 2.0% ester with 4.0% cetyl alcohol and CHG in dried waxy coatings (Table 3)
Experimental: Direct Innoculation Filter Assay
This is an in vitro assay using filter paper to compare the residual efficacy of different surgical skin prep formulations.
Phosphate Buffered Water solution (PBW) was made by making a 0.25M stock solution by putting 34 grams KH2PO4 into 500 mL of DI water, adjusting the pH to 7.2 with 10N NaOH, and adding enough DI water to make 1 liter. The solution was filtered, sterilized, dispensed into a 1 liter sterile bottle, and stored under refrigeration. Butterfield's PBW was made by adding 1.25 mL of the stock solution to 900 mL of DI water and adding neutralizers, stirring, heating to dissolve the components, and diluting to 1 liter with DI water. The solution was mixed well, dispensed into two 500-mL bottles. The bottles containing the solution were autoclaved for 25 minutes at 121 degree C. The contents were carefully swirled after removing the bottles from the autoclave.
A Standard Sampling Solution (SSS) was prepared which contained: 0.4 grams KH2PO4, 10.1 grams Na2HPO4, 1.0 gram TRITON X-100 surfactant, 3.0 grams lecithin, 30.0 grams TWEEN 80, and deionized water to bring the total volume to 1 liter. […]
Onto each filter disc was pipetted 25 μL of each Example preparation or control. […] After 48 hours, colonies were counted and recorded.
The CFU/mL was determined by multiplying CFU count by dilution rate. The CFU/sample was calculated by multiplying the CFU/mL by 20, the amount of the SSS dilution. The log10 of the CFU/sample was calculated. […]

Structure (SMILES) | Effect of emollient ester on bactericidal activity of the CHG
CC(C)OC(=O)CCCCC(=O)OC(C)C [diisopropyl adipate, Diisopropyl adipate] | significantly enhanced the bactericidal activity of the CHG
CCCCCCCCCCCCCCCC(=O)OC(C)C [isopropyl palmitate, Isopropyl palmitate] | did not enhance the activity of the CHG
CCCCOC(=O)CC(O)(CC(=O)OCCCC)C(=O)OCCCC [tributyl citrate, Tributyl citrate] | significantly enhanced the bactericidal activity of the CHG
